Where two headings read alike, the source gives them in different places.
What was measured:
OATP1B3 = target: T1, OATP1B3 (Homo sapiens, UniProt Q9NPD5); conditions: in vitro; cited from earlier work
T1 sequence (Q9NPD5 1-702): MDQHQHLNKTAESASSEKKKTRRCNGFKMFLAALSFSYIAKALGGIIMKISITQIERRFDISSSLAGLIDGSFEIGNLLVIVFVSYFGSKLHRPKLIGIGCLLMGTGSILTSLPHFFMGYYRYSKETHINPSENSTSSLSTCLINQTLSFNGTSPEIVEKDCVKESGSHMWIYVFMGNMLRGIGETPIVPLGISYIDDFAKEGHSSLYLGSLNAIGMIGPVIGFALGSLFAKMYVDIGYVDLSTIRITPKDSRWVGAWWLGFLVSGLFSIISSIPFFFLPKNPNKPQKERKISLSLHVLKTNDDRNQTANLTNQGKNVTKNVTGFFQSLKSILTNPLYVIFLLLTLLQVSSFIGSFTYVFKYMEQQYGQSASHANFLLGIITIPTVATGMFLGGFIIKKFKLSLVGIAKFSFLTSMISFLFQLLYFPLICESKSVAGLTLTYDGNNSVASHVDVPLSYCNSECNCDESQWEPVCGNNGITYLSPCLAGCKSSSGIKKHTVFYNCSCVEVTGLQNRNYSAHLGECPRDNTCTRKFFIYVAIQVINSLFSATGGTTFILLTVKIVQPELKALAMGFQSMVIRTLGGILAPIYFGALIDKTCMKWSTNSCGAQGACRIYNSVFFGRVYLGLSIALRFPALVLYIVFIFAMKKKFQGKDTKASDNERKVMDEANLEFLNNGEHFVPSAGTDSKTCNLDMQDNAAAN

P-gp = P-gp (Homo sapiens, UniProt P08183); conditions: in vitro; cited from earlier work
P-gp, sequence (P08183 whole entry): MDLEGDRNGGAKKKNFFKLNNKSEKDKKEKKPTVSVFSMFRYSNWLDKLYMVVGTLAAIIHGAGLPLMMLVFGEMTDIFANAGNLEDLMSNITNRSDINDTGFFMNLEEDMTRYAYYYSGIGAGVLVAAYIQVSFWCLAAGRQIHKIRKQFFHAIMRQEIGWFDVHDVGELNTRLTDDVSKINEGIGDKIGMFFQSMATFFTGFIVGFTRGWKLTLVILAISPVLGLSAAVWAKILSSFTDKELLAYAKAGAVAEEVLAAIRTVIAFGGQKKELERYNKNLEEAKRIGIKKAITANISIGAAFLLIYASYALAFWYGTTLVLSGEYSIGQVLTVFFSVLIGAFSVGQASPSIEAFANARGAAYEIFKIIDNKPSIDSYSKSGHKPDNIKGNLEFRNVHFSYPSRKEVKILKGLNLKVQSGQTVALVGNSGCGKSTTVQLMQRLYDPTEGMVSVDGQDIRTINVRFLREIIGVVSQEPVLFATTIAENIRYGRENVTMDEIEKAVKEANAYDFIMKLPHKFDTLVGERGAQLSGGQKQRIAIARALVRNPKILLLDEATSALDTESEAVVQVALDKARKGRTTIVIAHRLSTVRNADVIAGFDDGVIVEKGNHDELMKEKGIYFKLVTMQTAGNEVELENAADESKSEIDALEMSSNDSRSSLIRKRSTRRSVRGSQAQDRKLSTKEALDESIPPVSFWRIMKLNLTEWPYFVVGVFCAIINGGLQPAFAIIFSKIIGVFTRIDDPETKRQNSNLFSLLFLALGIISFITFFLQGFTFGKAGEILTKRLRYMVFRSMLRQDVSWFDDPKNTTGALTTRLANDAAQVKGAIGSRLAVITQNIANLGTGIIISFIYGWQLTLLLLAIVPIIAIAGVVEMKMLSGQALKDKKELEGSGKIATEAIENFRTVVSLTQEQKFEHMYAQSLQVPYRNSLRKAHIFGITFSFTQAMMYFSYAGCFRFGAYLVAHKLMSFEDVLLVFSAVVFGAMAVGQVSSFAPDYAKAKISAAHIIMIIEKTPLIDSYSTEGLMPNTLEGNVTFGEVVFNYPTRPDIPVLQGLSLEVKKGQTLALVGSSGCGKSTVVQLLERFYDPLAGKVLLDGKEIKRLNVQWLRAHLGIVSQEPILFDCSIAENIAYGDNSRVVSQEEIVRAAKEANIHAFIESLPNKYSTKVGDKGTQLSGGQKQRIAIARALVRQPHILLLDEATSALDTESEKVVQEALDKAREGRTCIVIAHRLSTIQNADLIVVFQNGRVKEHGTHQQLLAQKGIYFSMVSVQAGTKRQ

[1] = test system: CYP (cytochrome P450 enzymes); test: CYP inhibition in vitro
OATP1B1 = target: T2, OATP1B1 (Homo sapiens, UniProt Q9Y6L6); conditions: in vitro; cited from earlier work
T2 sequence (Q9Y6L6 1-691): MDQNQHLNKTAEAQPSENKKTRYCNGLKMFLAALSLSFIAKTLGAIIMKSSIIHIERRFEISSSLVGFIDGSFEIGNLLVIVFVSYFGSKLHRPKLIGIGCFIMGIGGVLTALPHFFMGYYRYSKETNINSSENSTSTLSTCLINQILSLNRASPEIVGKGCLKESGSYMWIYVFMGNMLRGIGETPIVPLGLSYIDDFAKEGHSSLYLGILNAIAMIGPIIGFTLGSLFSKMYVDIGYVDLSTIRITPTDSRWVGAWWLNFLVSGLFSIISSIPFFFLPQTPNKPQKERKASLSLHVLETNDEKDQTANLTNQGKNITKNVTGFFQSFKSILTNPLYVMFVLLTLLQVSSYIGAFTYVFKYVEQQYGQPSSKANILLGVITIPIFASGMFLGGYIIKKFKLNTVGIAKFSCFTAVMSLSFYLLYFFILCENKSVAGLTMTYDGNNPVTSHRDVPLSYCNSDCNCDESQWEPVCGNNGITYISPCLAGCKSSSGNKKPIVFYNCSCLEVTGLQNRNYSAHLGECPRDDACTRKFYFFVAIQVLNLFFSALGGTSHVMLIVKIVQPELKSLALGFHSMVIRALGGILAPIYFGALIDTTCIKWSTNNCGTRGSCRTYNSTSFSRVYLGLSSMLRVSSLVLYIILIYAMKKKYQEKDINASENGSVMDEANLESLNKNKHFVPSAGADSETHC

[2] = Phase-1 drug-drug interaction study in healthy volunteers (Compound (III) 800 mg, SMV 150 mg, Odalasvir 150 mg loading then 50 mg, once daily): plasma PK; format: in vivo, human; conditions: both sexes, human, in vivo; for AUC0-24: read-out: AUC0-24; for Cmax: read-out: Cmax
Source text: The following daily doses were employed:

[3] = PK of single agents vs fixed dose combinations (FDC), single oral dose in healthy volunteers; format: in vivo, human; conditions: for Cmax: read-out: Cmax (mean ± SD); for AUC(0-t): read-out: AUClast (mean ± SD); for AUC(0-inf): read-out: AUC∞ (mean ± SD)
Description: SMV (100 mg), ODV (50 mg), and Compound (III) (800 mg) were administered as three different formulations or together as single doses in vivo to healthy volunteers. The arms of the study included: • Arm 1 (Reference Arm): Single oral doses of single agents, one SMV 100-mg capsule, one ODV 50-mg tablet as granule layered solid dispersion with copovidone and poloxamers, and two Compound (III) 400-mg tablets, administered together. • Arm 2: Single oral dose of fixed dose combination (FDC02): SMV 100 mg+ODV 50 mg as a spray dried solid dispersion with HPMC-AS L in a ratio ODV/HPMC-AS L 1/1 w/w+Compound (III) 800 mg • Arm 3: Single oral dose of fixed dose combination (FDC04): SMV 100 mg+ODV 50 mg as a spray dried solid dispersion with HPMC-AS L in a ratio ODV/HPMC-AS L 1/3 w/w+Compound (III) 800 mg • Arm 4: Single oral dose of fixed dose combination (FDC01): SMV 100 mg+ODV 50 mg as a spray dried solid dispersion with copovidone and poloxamers+Compound (III) 800 mg
PK parameters, including Cmax, tmax, AUClast, and AUC∞ were measured for Compound (III), ODV, SMV, and metabolites Compound A-I and Compound A-3 for each Arm of the study. Arms that included fixed dose combinations (FDC) (Arm 2, Arm 3, and Arm 4) were then compared to a single oral dose (Arm 1, the reference Arm). Table 9, Table 10, Table 11, Table 12 and Table 13 display relevant PK parameters and FIG. 9, FIG. 10, FIG. 11, FIG. 12, and FIG. 13 depict the plasma concentration over time of SMV, ODV, Compound A-1, and Compound A-3 for each Arm of the study.

[4] = Group 1, Day 3, Compound (III) alone
[5] = Group 1, Day 13 (Compound (III) + SMV)
[6] = Group 1, Day 23 (Compound (III) + SMV + ODV)
[7] = Group 2, Day 3 (Compound (III) alone)
[8] = Group 2, Day 13 (Compound (III) + SMV)
[9] = Group 2, Day 23 (Compound (III) + SMV + ODV)
[10] = Arm 2 (FDC02) vs reference (Arm 1)
[11] = Arm 3 (FDC04) vs reference (Arm 1)
[12] = Arm 4 (FDC01) vs reference (Arm 1)
[13] = human, in vivo, Arm 1 (reference): single agents together

CC(C)OC(=O)[C@H](C)N[P@](=O)(OC[C@@]1(F)O[C@@H](n2ccc(=O)[nH]c2=O)[C@](C)(O)[C@@H]1O)Oc1ccccc1 [Compound (III), isopropyl ((S)-(((2S,3S,4R,5R)-5-(2,4-dioxo-3,4-dihydropyrimidin-1 (2H)-yl)-2-fluoro-3,4-dihydroxy-4-methyltetrahydrofuran-2-yl)methoxy)(phenoxy)phosphoryl)-L-alaninate]
OATP1B3 inhibition (in words) (OATP1B3): no in vitro inhibition
P-gp inhibition (in words) (P-gp): no in vitro inhibition
IC50 [1]: > 26 µM
CYP inhibition potential (in words) ([1]; on any CYP): limited CYP inhibition potential
OATP1B1 inhibition (in words) (OATP1B1): no in vitro inhibition
AUC0-24 [2, 4]: 292 ng·h/mL
Cmax [2, 4]: 162 ng/mL
AUC0-24 [2, 5]: 1000 ng·h/mL
Cmax [2, 5]: 376 ng/mL
AUC0-24 [2, 6]: 2090 ng·h/mL
Cmax [2, 6]: 747 ng/mL
AUC0-24 [2, 7]: 325 ng·h/mL
Cmax [2, 7]: 151 ng/mL
AUC0-24 [2, 8]: 1300 ng·h/mL
Cmax [2, 8]: 516 ng/mL
AUC0-24 [2, 9]: 2910 ng·h/mL
Cmax [2, 9]: 950 ng/mL
t1/2term (mean ± SD) ([3]; Arm 1 (reference): single agents together): 36 ± 6 min
Least Square Means Ratio, AUClast [3, 10]: 110.22%
Least Square Means Ratio, AUC∞ [3, 10]: 111.86%
Least Square Means Ratio, Cmax [3, 10]: 109.68%
t1/2term (mean ± SD) ([3]; Arm 2: FDC02): 42 ± 12 min
tmax (median [range]) ([3]; Arm 2: FDC02): 2.00 (0.50-4.00) h
Least Square Means Ratio, AUClast [3, 11]: 127.06%
Least Square Means Ratio, AUC∞ [3, 11]: 138.97%
Least Square Means Ratio, Cmax [3, 11]: 122.40%
t1/2term (mean ± SD) ([3]; Arm 3: FDC04): 42 ± 6 min
tmax (median [range]) ([3]; Arm 3: FDC04): 2.00 (1.00-4.00) h
Least Square Means Ratio, AUClast [3, 12]: 151.72%
Least Square Means Ratio, AUC∞ [3, 12]: 144.80%
Least Square Means Ratio, Cmax [3, 12]: 145.56%
t1/2term (mean ± SD) ([3]; Arm 4: FDC01): 36 ± 6 min
tmax (median [range]) ([3]; Arm 4: FDC01): 2.00 (1.00-4.00) h
Cmax ([3]; human, in vivo, Arm 1 (reference): single agents together, SMV 100-mg capsule, ODV 50-mg tablet, two Compound (III) 400-mg tablets): 484 ± 177 ng/mL
AUC(0-t) [3, 13]: 1160 ± 497 ng·h/mL
AUC(0-inf) [3, 13]: 1180 ± 524 ng·h/mL
Tmax ([3]; human, in vivo, Arm 1 (reference): single agents together, read-out: tmax (median [range])): 120 min
Cmax ([3]; human, in vivo, Arm 2: FDC02, SMV 100 mg + ODV 50 mg (ODV/HPMC-AS L 1/1 w/w) + Compound (III) 800 mg): 544 ± 225 ng/mL
AUC(0-t) ([3]; human, in vivo, Arm 2: FDC02): 1260 ± 411 ng·h/mL
AUC(0-inf) ([3]; human, in vivo, Arm 2: FDC02): 1300 ± 420 ng·h/mL
Cmax ([3]; human, in vivo, Arm 3: FDC04, SMV 100 mg + ODV 50 mg (ODV/HPMC-AS L 1/3 w/w) + Compound (III) 800 mg): 617 ± 295 ng/mL
AUC(0-t) ([3]; human, in vivo, Arm 3: FDC04): 1440 ± 450 ng·h/mL
AUC(0-inf) ([3]; human, in vivo, Arm 3: FDC04): 1580 ± 434 ng·h/mL
Cmax ([3]; human, in vivo, Arm 4: FDC01, SMV 100 mg + ODV 50 mg (copovidone and poloxamers) + Compound (III) 800 mg): 745 ± 381 ng/mL
AUC(0-t) ([3]; human, in vivo, Arm 4: FDC01): 1830 ± 866 ng·h/mL
AUC(0-inf) ([3]; human, in vivo, Arm 4: FDC01): 1790 ± 889 ng·h/mL

— patent US20170087174A1, “COMBINATION THERAPY REGIMEN FOR TREATMENT OF HCV” (JANSSEN PHARMACEUTICALS, INC., priority 2015, published 2017)
